Assays:
[1] = test system: human colorectal cancer SW837 cells; experiment: Raji-PDL1, PBMC and SW837 co-culture, IL-2 ELISA; assay type: cell-based; settings: 3 days
Description: SW837 is a human colorectal cancer cell line of non-MSI-H/dMMR (i.e., MSS) phenotype (Guo J et al., Cancer Res., 2011; 71(8):2978-2987), and was used for detecting the enhanced immune cell response to tumor of non-MSI-H/dMMR (i.e., MSS) phenotype by 14C12H1L1(hG1TM) in this example.
PBMCs were isolated from healthy human peripheral blood according to the Ficoll-Paque™ Plus reagent instruction, and the isolated PBMCs were counted and frozen. Raji-PDL1 cells were cultured in RPMI 1640+10% FBS complete medium, and SW837 cells (purchased from Shanghai Honsun Biological Technology Co., Ltd) were cultured in 10% FBS+Leibovitz's L-15 complete medium (purchased from Gibco). PBMCs were thawed and activated with 0.5 μg/mL SEB for two days. On the day of the experiment, Raji-PDL1 cells were treated with 2 μg/mL MMC for 1 h. SEB-activated PBMCs and MMC-treated Raji-PDL1 cells were collected, washed twice with PBS, resuspended in RPMI 1640+10% FBS complete medium and counted. Raji-PDL1 and PBMC cells were seeded on 96-well plates at 1×10^5 cells/well. SW837 cells in logarithmic growth phase were collected and seeded on the 96-well plate at 5×10^4 cells/well. The diluted antibody was added according to the study design. The mixture was mixed evenly and incubated in a 5% CO2 incubator at 37° C. for 3 days. […]

[2] = test system: human nasopharyngeal cancer CNE-2Z cells; experiment: Raji-PDL1, PBMC and CNE-2Z co-culture with antibodies and anlotinib, IL-2 ELISA; assay type: cell-based; settings: CNE-2Z co-culture, 3 days; compared to the anti-HEL antibody and the anlotinib monotherapies
Description: PBMCs were isolated from healthy human peripheral blood according to the Ficoll-Paque™ Plus reagent instruction, and the isolated PBMCs were counted and frozen. Raji-PDL1 and CNE-2Z cells (purchased from GuangZhou Jennio Biotech Co., Ltd.) were cultured in RPMI 1640+10% FBS complete medium. PBMCs were thawed and activated with 0.5 μg/mL SEB for two days. On the day of the experiment, Raji-PDL1 cells were treated with 2 μg/mL MMC for 1 h. SEB-activated PBMCs and MMC-treated Raji-PDL1 cells were collected, washed twice with PBS, resuspended in RPMI 1640+10% FBS complete medium and counted. Raji-PDL1 and PBMC cells were seeded on 96-well plates at 1×10^5 cells/well. CNE-2Z cells in logarithmic growth phase were collected and seeded on the 96-well plate at 3×10^4 cells/well. The diluted antibodies and anlotinib were added according to the study design. The mixture was mixed evenly and incubated in a 5% CO2 incubator at 37° C. for 3 days. After 3 days, the cell culture supernatant was collected and tested for IL-2 according to ELISA KIT instruction. The media in this experiment were all 10% FBS+RPMI 1640.

[3] = test system: CHO-K1-PD1 cells; experiment: Antibody-mediated phagocytic activity (ADCP) of murine macrophages on CHO-K1-PD1; assay type: cell-based, mouse; settings: CHO-K1-PD1-CFSE target cells
Description: To detect the antibody dependent cellular phagoxytosis (ADCP) activity, murine macrophages were used as effector cells and cell lines overexpressing PD1 were used as target cells. The femoral bone marrow of Blab/c mice (purchased from Guangdong Medical Laboratory Animal Center) was first aseptically collected and lysed by erythrocyte lysis buffer on ice for 5 min. The lysis was terminated with DMEM complete medium (containing 10% FBS), and the lysate was centrifuged at 1000 rpm and washed twice. The cell pellet was resuspended in 10 mL of DMEM complete medium and M-CSF were added at a working concentration of 100 ng/mL. […] The supernatant was discarded and the cells were suspended in DMEM complete medium (containing 10% FBS) and counted. […] CHO-K1-PD1 cells (a CHO-K1 cell line overexpressing PD1) were centrifuged at 170×g for 5 min, washed once with PBS, resuspended and counted. The viability was determined. […]
The test antibodies were diluted in DMEM complete medium to 20, 2 and 0.2 μg/mL (the working concentrations were 10, 1 and 0.1 μg/mL). […] The cells were transferred to loading tube and analyzed by BD FACS Calibur flow cytometer. […] The phagocytosis rate was determined as the ratio of the number of double positive cells to the number of APC positive cells, and the antibody-mediated ADCP activity was evaluated. […]

[4] = test system: MSI-H/dMMR tumor SW48 cells; experiment: Raji-PDL1, PBMC and SW48 co-culture with antibodies and anlotinib, IL-2 ELISA; assay type: cell-based, human; settings: 3 days, compared to anti-HEL antibody
Description: SW48 is a human colorectal cancer cell line and is identified with MSI-H/dMMR phenotype (Branch P et al., (1995), Cancer Res, 55(11): 2304-2309). It was used for detecting the enhanced immune cell response to tumor of MSI-H/dMMR phenotype by 14C12H1L1(hG1TM).
PBMCs were isolated from healthy human peripheral blood according to the Ficoll-Paque™ Plus reagent instruction, and the isolated PBMCs were counted and frozen. Raji-PDL1 cells were cultured in RPMI 1640+10% FBS complete medium, and SW48 cells (purchased from GuangZhou Jennio Biotech Co., Ltd.) were cultured in DMEM+10% FBS complete medium. PBMCs were thawed and activated with 0.5 μg/mL SEB for two days. On the day of the experiment, Raji-PDL1 cells were treated with 2 μg/mL MMC for 1 h. SEB-activated PBMCs and MMC-treated Raji-PDL1 cells were collected, washed twice with PBS, resuspended in RPMI 1640+10% FBS complete medium and counted. Raji-PDL1 and PBMC cells were seeded on 96-well plates at 1×10^5 cells/well. SW48 cells in logarithmic growth phase were collected and seeded on the 96-well plate at 2×10^5 cells/well. The diluted antibody and anlotinib was added according to the study design. The mixture was mixed evenly and incubated in a 5% CO2 incubator at 37° C. for 3 days. After 3 days, the cell culture supernatant was collected and tested for IL-2 according to ELISA KIT instruction. […]

Substance: nivolumab: anti-PD-1 antibody nivolumab (trade name: Opdivo), purchased from Bristol-Myers Squibb [reference compound]
- immune response of immune cells (IL-2) [1]: significantly enhanced the immune response
- immune response of immune cells (IL-2 secretion level) [2]: significantly increased IL-2 secretion level
- ADCP effect [3]: have ADCP effects
- phagocytic rate relative to that of the isotype control anti-HEL antibody ([3]; at the same concentration, 2 h, flow cytometry): 4.26 times
- immune response of immune cells (secretion level of IL-2) [4]: significantly increased secretion level of IL-2

From US20220267444A1, “ANTI-PD-1 ANTIBODY AND MEDICAL USE THEREOF” (CTTQ-AKESO (SHANGHAI) BIOMED. TECH. CO., LTD., priority 2019, published 2022)
